Data: the supplement of paper PMC5908809

How the values were obtained:
[1] = system: normal primary NK cells, pool 1 (3 donors) (IL-2 2.5 ng/mL); test: drug sensitivity score (DSS) (DSS units); higher = more sensitive; extreme values may be limits of the assay; settings: 72 h
DERL-7 (IL-2 2.5 ng/mL) [2] = test: as above; settings: 72 h
[3] = system: normal primary NK cells, pool 1 (3 donors), resting (IL-2 0 ng/mL); test: as above; settings: 72 h
SNK-6 (IL-2 2.5 ng/mL) [4] = test: as above; settings: 72 h
YT (IL-2 2.5 ng/mL) [5] = test: as above; settings: 72 h
IMC-1 (IL-2 20 ng/mL) [6] = test: as above; settings: 72 h
[7] = system: normal primary NK cells, pool 2 (3 donors) (IL-2 2.5 ng/mL); test: as above; settings: 72 h
[8] = system: normal primary NK cells, pool 3 (3 donors) (IL-2 2.5 ng/mL); test: as above; settings: 72 h
NKL (IL-2 2.5 ng/mL) [9] = test: as above; settings: 72 h
KHYG-1 (IL-2 2.5 ng/mL) [10] = test: as above; settings: 72 h
NK-92 (IL-2 2.5 ng/mL) [11] = test: as above; settings: 72 h
KAI3 (IL-2 2.5 ng/mL) [12] = test: as above; settings: 72 h
NK-YS (IL-2 2.5 ng/mL) [13] = test: as above; settings: 72 h
[14] = system: normal primary NK cells, pool 1 (3 donors) (IL-2 2.5 ng/mL); test: percent inhibition of viability; higher = more inhibition; settings: 72 h
DERL-7 (IL-2 2.5 ng/mL) [15] = test: as above; settings: 72 h
[16] = system: normal primary NK cells, pool 1 (3 donors), resting (IL-2 0 ng/mL); test: as above; settings: 72 h
SNK-6 (IL-2 2.5 ng/mL) [17] = test: as above; settings: 72 h
YT (IL-2 2.5 ng/mL) [18] = test: as above; settings: 72 h
IMC-1 (IL-2 20 ng/mL) [19] = test: as above; settings: 72 h
[20] = system: normal primary NK cells, pool 2 (3 donors) (IL-2 2.5 ng/mL); test: as above; settings: 72 h
[21] = system: normal primary NK cells, pool 3 (3 donors) (IL-2 2.5 ng/mL); test: as above; settings: 72 h
NKL (IL-2 2.5 ng/mL) [22] = test: as above; settings: 72 h
KHYG-1 (IL-2 2.5 ng/mL) [23] = test: as above; settings: 72 h
NK-92 (IL-2 2.5 ng/mL) [24] = test: as above; settings: 72 h
KAI3 (IL-2 2.5 ng/mL) [25] = test: as above; settings: 72 h
NK-YS (IL-2 2.5 ng/mL) [26] = test: as above; settings: 72 h
[27] = system: normal NK cells expanded with K562-aAPC; test: as above; settings: 72 h, IL-2 2.5 ng/mL
Procedure: (§1)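 Drug sensitivity and resistance testing on K562-aAPC-expanded normal NK cells: 5 concentrations (10-fold steps over a 10,000-fold range), 72 h at 37 °C, viability by CellTiter-Glo normalised to DMSO and benzethonium chloride controls; DSS from the fitted curve.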

[28] = system: normal NK cells expanded with K562-aAPC; test: drug sensitivity score (DSS) (DSS units); higher = more sensitive; extreme values may be limits of the assay; settings: 72 h; IL-2 2.5 ng/mL
Procedure: as §1

O=C(O)c1ccc(-c2c[nH]c3ncc(-c4ccccc4)cc23)cc1C1CCCC1 (max concentration tested 10000 nM)
Settings | drug sensitivity score
DERL-7 (IL-2 2.5 ng/mL) [2] | 4.22
IMC-1 (IL-2 20 ng/mL) [6] | 4.18
KAI3 (IL-2 2.5 ng/mL) [12] | 8.09
KHYG-1 (IL-2 2.5 ng/mL) [10] | 8.41
NK-92 (IL-2 2.5 ng/mL) [11] | 4.5
NK-YS (IL-2 2.5 ng/mL) [13] | 4.89
NKL (IL-2 2.5 ng/mL) [9] | 7.3
SNK-6 (IL-2 2.5 ng/mL) [4] | 0
YT (IL-2 2.5 ng/mL) [5] | 3.73
[1] | 3.22
[3] | 3.47
[7] | 3.48
[8] | 1.43
[28] | 6.12

percent inhibition of viability [%]
Settings | 1 nM | 10 nM | 100 nM | 1000 nM | 10000 nM
DERL-7 (IL-2 2.5 ng/mL) [15] | -9.96 | -1.92 | -0.6 | 3.14 | 69
IMC-1 (IL-2 20 ng/mL) [19] | -3.86 | -6.5 | -2.05 | 1.32 | 72.7
KAI3 (IL-2 2.5 ng/mL) [25] | 14.8 | 11.5 | 12.9 | 31 | 53.1
KHYG-1 (IL-2 2.5 ng/mL) [23] | 1.54 | -1.17 | 6.23 | 24.4 | 87.8
NK-92 (IL-2 2.5 ng/mL) [24] | -7.79 | -6.02 | -14.8 | 6.45 | 63.1
NK-YS (IL-2 2.5 ng/mL) [26] | 3.9 | -4.11 | 6.44 | 17.4 | 53.2
NKL (IL-2 2.5 ng/mL) [22] | -3 | 3.11 | 11.4 | 27.3 | 76.9
SNK-6 (IL-2 2.5 ng/mL) [17] | 2.78 | -21.4 | -20.9 | -24.3 | -8.86
YT (IL-2 2.5 ng/mL) [18] | 3.57 | -0.35 | 6.38 | 10.9 | 43.5
[14] | -4.88 | 9.93 | 9.09 | 13.8 | 33.7
[16] | -0.46 | 4.28 | 6.33 | 11.9 | 41.2
[20] | -5.78 | -5.79 | -4.92 | 6.53 | 46
[21] | 2.83 | 5.65 | 10 | 2.66 | 25.9
[27] | 0.69 | -1.15 | 0.93 | 14.6 | 68.6

NC(=S)N/N=C/c1ncccc1N [Triapine] (max concentration tested 10000 nM)
Settings | drug sensitivity score
DERL-7 (IL-2 2.5 ng/mL) [2] | 4.86
IMC-1 (IL-2 20 ng/mL) [6] | 4.69
KAI3 (IL-2 2.5 ng/mL) [12] | 9.5
KHYG-1 (IL-2 2.5 ng/mL) [10] | 13.8
NK-92 (IL-2 2.5 ng/mL) [11] | 12.1
NK-YS (IL-2 2.5 ng/mL) [13] | 9.25
NKL (IL-2 2.5 ng/mL) [9] | 4.61
SNK-6 (IL-2 2.5 ng/mL) [4] | 4.48
YT (IL-2 2.5 ng/mL) [5] | 3.49
[1] | 3.86
[3] | 8.2
[7] | 3.34
[8] | 4.03
[28] | 10.1

percent inhibition of viability [%]
Settings | 1 nM | 10 nM | 100 nM | 1000 nM | 10000 nM
DERL-7 (IL-2 2.5 ng/mL) [15] | -1.06 | 2.72 | -5.08 | -8.15 | 97.7
IMC-1 (IL-2 20 ng/mL) [19] | -5.06 | 0.28 | -5.51 | -12.1 | 98
KAI3 (IL-2 2.5 ng/mL) [25] | -5.83 | 4.79 | 3.83 | 32.7 | 93.6
KHYG-1 (IL-2 2.5 ng/mL) [23] | -1.53 | -0.9 | -1.65 | 73.7 | 97.9
NK-92 (IL-2 2.5 ng/mL) [24] | -11.5 | -5.21 | -2.75 | 61.1 | 90.6
NK-YS (IL-2 2.5 ng/mL) [26] | -1.66 | -1.59 | -1.57 | 26.8 | 95.1
NKL (IL-2 2.5 ng/mL) [22] | -2.42 | -1.96 | -11.9 | -7.16 | 92.3
SNK-6 (IL-2 2.5 ng/mL) [17] | 4.11 | 13 | 14.7 | -6.98 | 89.7
YT (IL-2 2.5 ng/mL) [18] | 0.85 | 0.16 | -3.39 | -10 | 74.8
[14] | -6.36 | -11 | -8.82 | 4.76 | 57.7
[16] | -6.48 | -20.7 | -16.6 | 22.7 | 85.8
[20] | -9.87 | -3.04 | -3.45 | 8.38 | 40
[21] | -6.53 | -8.38 | -5.12 | 15.8 | 38.7
[27] | -2.67 | -8.24 | -2.71 | 55 | 64.6
